Calls of active or inactive are those of the source. The calls are words filed in the database; no cut-off is given here.
Columns and labels:
[1] = biological target: Amiloride-sensitive sodium channel, ENaC (Homo sapiens, UniProt P37088+P51168+P51170); test: Inhibition of Na+ current by Ussing Chamber; type: functional, tissue-based, epithelium
[2] = biological target: T1, Muscarinic acetylcholine receptor M1 (Homo sapiens) (UniProt P11229); test: M1/H Eurofins SafetyScreen44 (BI); conditions: Compound concentration 10.0 uM
T1 sequence (whole entry): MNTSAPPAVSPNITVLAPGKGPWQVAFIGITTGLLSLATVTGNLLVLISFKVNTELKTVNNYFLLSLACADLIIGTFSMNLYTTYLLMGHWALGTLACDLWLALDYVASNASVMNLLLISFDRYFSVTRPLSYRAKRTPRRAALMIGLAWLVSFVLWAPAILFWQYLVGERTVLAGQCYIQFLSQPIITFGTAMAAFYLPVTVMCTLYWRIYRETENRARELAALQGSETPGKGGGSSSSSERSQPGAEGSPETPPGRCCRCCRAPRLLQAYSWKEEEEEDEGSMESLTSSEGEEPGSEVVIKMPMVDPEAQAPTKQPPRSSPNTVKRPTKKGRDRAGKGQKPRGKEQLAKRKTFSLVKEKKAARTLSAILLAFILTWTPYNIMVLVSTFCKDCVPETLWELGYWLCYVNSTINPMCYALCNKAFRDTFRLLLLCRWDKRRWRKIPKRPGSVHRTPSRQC

[3] = biological target: voltage-gated sodium channel (site 2) (Rattus norvegicus, UniProt F1LQQ7+O08562+O88420+O88457+P04774+P04775+P08104+P15389+P15390+Q62968); test: NA+/SITE2/R Eurofins SafetyScreen44 (BI); type: protein assay; conditions: compound concentration 10 uM, read-out: % Ctrl
[4] = biological target: Sodium-dependent dopamine transporter (Homo sapiens) (UniProt Q01959); test: DATRANS/HUM Eurofins SafetyScreen44 (BI); conditions: Compound concentration 10.0 uM
[5] = biological target: Cholecystokinin receptor type A (Homo sapiens) (UniProt P32238); test: CCKA/H Eurofins SafetyScreen44 (BI); conditions: Compound concentration 10.0 uM
[6] = biological target: L-type calcium channel alpha-1C (dihydropyridine site) (Rattus norvegicus, UniProt P22002); test: CA+/DHPSI/R Eurofins SafetyScreen44 (BI); conditions: compound concentration 10 uM, read-out: % Ctrl
[7] = biological target: 5-hydroxytryptamine receptor 2B (Homo sapiens) (UniProt P41595); test: 5HT2B/H AG Eurofins SafetyScreen44 (BI); conditions: filed as agonist, Compound concentration 10.0 uM
Chain of 5-hydroxytryptamine receptor 2B (Homo sapiens) (P41595 whole entry): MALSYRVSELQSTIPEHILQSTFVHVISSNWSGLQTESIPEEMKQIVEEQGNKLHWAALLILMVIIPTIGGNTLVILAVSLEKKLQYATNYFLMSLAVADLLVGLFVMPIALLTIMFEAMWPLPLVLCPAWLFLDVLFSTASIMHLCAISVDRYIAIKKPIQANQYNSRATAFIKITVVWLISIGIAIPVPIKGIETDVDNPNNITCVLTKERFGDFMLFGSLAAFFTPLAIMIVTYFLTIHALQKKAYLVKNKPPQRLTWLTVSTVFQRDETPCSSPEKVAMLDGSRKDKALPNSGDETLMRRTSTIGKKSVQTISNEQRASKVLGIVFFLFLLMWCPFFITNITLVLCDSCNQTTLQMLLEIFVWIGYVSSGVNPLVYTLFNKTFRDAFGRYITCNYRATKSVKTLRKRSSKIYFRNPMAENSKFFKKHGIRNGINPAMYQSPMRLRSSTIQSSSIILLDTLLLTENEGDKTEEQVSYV

[8] = biological target: Beta-2 adrenergic receptor (Homo sapiens) (UniProt P07550); test: BETA2/HUM Eurofins SafetyScreen44 (BI); conditions: filed as antagonist, Compound concentration 10.0 uM
Chain of Beta-2 adrenergic receptor (Homo sapiens) (P07550 whole entry, looked up): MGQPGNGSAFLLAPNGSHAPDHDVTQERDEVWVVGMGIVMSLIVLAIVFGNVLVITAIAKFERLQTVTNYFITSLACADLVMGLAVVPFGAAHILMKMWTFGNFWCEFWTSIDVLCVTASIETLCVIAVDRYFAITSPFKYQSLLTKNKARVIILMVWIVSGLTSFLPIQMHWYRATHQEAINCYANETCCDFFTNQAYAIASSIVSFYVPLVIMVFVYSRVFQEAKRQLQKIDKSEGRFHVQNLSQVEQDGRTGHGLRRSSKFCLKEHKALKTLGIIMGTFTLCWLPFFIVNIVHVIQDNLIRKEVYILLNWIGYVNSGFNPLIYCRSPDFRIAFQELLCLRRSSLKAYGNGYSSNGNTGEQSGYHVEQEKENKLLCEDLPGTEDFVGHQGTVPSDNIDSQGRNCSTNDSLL

[9] = biological target: Tyrosine-protein kinase Lck (Homo sapiens) (UniProt P06239); test: LCK_CE Eurofins SafetyScreen44 (BI); conditions: Compound concentration 10.0 uM
[10] = biological target: Beta-1 adrenergic receptor (Homo sapiens) (UniProt P08588); test: BETA1/HUM Eurofins SafetyScreen44 (BI); conditions: Compound concentration 10.0 uM
[11] = biological target: voltage-gated potassium channel (IKs; KCNQ1/KCNE1 as curated) (Rattus norvegicus, UniProt P15383+Q9Z0N7); test: K+/VOLT/RA Eurofins SafetyScreen44 (BI); type: protein-complex assay; conditions: compound concentration 10 uM, read-out: % Ctrl
[12] = biological target: 3',5'-cyclic-AMP phosphodiesterase 4D (Homo sapiens) (UniProt Q08499); test: PDE4D2 Eurofins SafetyScreen44 (BI); conditions: Compound concentration 10.0 uM
Chain of 3',5'-cyclic-AMP phosphodiesterase 4D (Homo sapiens) (Q08499 whole entry): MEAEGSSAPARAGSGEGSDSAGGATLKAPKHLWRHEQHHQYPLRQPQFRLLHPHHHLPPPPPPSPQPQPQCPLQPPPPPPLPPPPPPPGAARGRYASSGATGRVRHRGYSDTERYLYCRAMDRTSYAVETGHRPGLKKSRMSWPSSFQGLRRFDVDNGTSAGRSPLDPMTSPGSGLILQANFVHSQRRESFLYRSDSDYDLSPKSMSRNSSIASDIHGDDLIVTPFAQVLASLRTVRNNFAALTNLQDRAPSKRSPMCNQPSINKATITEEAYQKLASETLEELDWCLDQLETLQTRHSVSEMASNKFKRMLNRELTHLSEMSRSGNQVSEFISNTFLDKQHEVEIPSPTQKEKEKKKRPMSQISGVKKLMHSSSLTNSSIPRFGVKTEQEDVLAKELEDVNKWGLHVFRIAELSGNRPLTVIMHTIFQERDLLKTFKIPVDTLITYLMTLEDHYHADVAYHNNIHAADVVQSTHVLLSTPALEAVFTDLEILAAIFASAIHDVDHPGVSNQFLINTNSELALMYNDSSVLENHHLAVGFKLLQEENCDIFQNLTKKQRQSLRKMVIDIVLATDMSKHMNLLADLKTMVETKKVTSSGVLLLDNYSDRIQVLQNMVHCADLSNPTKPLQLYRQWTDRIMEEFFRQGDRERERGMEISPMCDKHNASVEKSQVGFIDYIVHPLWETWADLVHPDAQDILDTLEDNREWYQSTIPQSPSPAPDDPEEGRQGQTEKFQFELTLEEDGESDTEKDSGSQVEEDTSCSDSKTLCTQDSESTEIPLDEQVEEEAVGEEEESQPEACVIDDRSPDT

[13] = biological target: Endothelin-1 receptor (Homo sapiens) (UniProt P25101); test: ETA/H Eurofins SafetyScreen44 (BI); conditions: Compound concentration 10.0 uM
[14] = biological target: cGMP-inhibited 3',5'-cyclic phosphodiesterase 3A (Homo sapiens) (UniProt Q14432); test: PDE3A Eurofins SafetyScreen44 (BI); conditions: Compound concentration 10.0 uM
[15] = biological target: D(2) dopamine receptor (Homo sapiens) (UniProt P14416); test: D2SH_AGON Eurofins SafetyScreen44 (BI); conditions: filed as agonist, Compound concentration 10.0 uM
[16] = biological target: Neuronal acetylcholine receptor; alpha4/beta2 (Homo sapiens) (UniProt P17787+P43681); test: N_NEURO_A4B2 Eurofins SafetyScreen44 (BI); type: protein-complex assay; conditions: filed as agonist, Compound concentration 10.0 uM
[17] = biological target: D(1A) dopamine receptor (Homo sapiens) (UniProt P21728); test: D1/H Eurofins SafetyScreen44 (BI); conditions: filed as antagonist, Compound concentration 10.0 uM
[18] = biological target: Sodium-dependent noradrenaline transporter (Homo sapiens) (UniProt P23975); test: NEUP/H Eurofins SafetyScreen44 (BI); conditions: Compound concentration 10.0 uM
[19] = biological target: Glutamate NMDA receptor (Rattus norvegicus) (UniProt P35439+Q00959+Q00960+Q00961+Q62645+Q8VHN2+Q9R1M7); test: NMDA/R Eurofins SafetyScreen44 (BI); type: protein-complex assay; conditions: Compound concentration 10.0 uM
[20] = biological target: Androgen receptor (Homo sapiens) (UniProt P10275); test: ANDROGEN/H Eurofins SafetyScreen44 (BI); conditions: Compound concentration 10.0 uM
Chain of Androgen receptor (Homo sapiens) (P10275 whole entry): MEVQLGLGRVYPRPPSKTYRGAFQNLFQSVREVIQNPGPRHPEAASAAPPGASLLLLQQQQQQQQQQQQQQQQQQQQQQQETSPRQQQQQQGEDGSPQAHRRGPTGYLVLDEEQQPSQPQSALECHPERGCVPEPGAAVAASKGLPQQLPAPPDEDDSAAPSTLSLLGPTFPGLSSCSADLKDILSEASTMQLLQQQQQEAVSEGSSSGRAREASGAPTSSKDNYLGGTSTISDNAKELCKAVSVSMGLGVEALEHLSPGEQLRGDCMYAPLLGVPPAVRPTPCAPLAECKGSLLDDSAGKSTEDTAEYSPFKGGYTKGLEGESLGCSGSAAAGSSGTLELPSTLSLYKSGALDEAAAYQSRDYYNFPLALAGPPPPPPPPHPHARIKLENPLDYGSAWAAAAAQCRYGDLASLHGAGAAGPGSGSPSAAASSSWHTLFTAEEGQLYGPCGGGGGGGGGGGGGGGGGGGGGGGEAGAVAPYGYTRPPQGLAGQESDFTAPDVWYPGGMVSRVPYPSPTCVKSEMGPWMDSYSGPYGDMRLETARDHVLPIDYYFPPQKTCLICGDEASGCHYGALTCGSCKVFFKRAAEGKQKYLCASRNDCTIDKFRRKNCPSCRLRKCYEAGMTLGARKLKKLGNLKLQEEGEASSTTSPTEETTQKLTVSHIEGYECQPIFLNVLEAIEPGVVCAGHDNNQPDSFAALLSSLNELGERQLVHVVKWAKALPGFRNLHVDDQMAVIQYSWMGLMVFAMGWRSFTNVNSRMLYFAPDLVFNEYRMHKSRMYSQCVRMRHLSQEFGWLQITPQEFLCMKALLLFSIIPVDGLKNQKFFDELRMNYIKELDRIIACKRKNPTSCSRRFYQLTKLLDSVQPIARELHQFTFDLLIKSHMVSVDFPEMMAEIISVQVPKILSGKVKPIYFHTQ

[21] = biological target: Vasopressin V1a receptor (Homo sapiens) (UniProt P37288); test: V1A/HUM Eurofins SafetyScreen44 (BI); conditions: Compound concentration 10.0 uM
[22] = biological target: Adenosine receptor A2a (Homo sapiens) (UniProt P29274); test: A2A/H Eurofins SafetyScreen44 (BI); conditions: filed as antagonist, Compound concentration 10.0 uM
[23] = biological target: T2, Alpha-2A adrenergic receptor (Homo sapiens) (UniProt P08913); test: ALPHA2A/HU Eurofins SafetyScreen44 (BI); conditions: Compound concentration 10.0 uM
T2 sequence (whole entry): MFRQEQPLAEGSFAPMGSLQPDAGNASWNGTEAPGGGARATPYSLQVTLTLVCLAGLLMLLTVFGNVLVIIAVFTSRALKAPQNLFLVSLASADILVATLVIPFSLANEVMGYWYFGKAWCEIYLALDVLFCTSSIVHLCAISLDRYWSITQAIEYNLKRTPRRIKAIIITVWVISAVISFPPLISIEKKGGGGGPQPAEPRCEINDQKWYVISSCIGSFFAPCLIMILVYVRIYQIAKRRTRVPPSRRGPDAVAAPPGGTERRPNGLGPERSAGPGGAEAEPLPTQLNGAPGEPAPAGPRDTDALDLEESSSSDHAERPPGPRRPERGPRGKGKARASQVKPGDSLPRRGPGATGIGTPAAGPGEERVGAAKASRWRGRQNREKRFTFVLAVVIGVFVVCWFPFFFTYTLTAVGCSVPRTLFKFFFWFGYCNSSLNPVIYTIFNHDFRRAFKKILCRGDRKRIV

[24] = biological target: Glucocorticoid receptor (Homo sapiens) (UniProt P04150); test: GCORTICOID/H Eurofins SafetyScreen44 (BI); conditions: Compound concentration 10.0 uM
[25] = biological target: Histamine H2 receptor (Homo sapiens) (UniProt P25021); test: H2/APT/HS Eurofins SafetyScreen44 (BI); conditions: filed as antagonist, Compound concentration 10.0 uM
[26] = biological target: Cannabinoid receptor 2 (Homo sapiens) (UniProt P34972); test: CB2/PERIPH/H Eurofins SafetyScreen44 (BI); conditions: Compound concentration 10.0 uM
Chain of Cannabinoid receptor 2 (Homo sapiens) (P34972 whole entry): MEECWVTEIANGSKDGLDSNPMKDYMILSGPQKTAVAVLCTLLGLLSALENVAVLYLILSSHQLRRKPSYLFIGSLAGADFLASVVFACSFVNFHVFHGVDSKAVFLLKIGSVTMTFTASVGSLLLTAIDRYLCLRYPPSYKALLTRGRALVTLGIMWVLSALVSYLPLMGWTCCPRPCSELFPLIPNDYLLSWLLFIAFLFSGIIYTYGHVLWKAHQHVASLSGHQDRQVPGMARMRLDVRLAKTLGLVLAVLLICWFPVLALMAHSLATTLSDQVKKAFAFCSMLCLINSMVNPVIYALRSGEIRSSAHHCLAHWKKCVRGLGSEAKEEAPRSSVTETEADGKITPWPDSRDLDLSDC

[27] = biological target: GABA-A receptor; anion channel (Rattus norvegicus) (UniProt O09028+P15431+P18506+P18508+P19969+P20236+P23574+P23576+P28471+P28473+P30191+P62813+P63079+P63138+Q91ZM7+Q9ES14); test: BZD/CENTR/R Eurofins SafetyScreen44 (BI); type: protein-complex assay; conditions: Compound concentration 10.0 uM

Chain of Amiloride-sensitive sodium channel, ENaC (P37088 whole entry): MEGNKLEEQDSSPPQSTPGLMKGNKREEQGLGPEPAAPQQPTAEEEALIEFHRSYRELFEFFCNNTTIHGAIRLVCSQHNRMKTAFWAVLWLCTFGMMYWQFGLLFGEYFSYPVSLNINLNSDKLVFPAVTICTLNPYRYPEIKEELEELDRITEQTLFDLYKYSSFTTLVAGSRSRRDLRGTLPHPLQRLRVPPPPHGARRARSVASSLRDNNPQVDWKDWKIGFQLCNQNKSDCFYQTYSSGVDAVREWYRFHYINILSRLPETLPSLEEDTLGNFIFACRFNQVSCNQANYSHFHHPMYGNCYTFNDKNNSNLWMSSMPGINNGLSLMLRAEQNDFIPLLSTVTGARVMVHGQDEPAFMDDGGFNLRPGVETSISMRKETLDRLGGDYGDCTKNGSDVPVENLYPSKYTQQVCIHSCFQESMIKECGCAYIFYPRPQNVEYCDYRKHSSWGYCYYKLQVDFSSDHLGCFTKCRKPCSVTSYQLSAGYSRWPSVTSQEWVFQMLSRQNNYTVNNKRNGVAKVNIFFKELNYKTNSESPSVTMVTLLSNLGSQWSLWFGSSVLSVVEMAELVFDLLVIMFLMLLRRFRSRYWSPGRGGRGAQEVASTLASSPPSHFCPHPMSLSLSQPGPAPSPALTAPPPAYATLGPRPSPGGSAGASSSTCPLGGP
Chain of Amiloride-sensitive sodium channel, ENaC (P51168 whole entry): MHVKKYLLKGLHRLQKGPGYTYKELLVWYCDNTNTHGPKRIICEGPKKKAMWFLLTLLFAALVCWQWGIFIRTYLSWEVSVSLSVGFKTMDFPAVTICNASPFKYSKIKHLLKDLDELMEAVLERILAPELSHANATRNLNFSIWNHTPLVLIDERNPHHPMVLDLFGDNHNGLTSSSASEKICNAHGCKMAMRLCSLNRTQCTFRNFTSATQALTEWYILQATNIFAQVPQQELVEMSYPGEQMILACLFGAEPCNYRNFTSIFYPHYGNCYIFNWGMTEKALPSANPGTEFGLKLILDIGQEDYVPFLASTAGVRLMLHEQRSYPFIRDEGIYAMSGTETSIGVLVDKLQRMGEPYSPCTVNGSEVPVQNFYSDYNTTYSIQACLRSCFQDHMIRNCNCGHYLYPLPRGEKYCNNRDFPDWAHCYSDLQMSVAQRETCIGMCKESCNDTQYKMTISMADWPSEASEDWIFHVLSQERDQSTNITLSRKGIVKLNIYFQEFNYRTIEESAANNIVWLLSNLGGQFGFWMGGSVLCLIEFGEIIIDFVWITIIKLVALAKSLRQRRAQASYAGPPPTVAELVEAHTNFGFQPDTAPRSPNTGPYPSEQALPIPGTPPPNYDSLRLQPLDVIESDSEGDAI
Chain of Amiloride-sensitive sodium channel, ENaC (P51170 whole entry): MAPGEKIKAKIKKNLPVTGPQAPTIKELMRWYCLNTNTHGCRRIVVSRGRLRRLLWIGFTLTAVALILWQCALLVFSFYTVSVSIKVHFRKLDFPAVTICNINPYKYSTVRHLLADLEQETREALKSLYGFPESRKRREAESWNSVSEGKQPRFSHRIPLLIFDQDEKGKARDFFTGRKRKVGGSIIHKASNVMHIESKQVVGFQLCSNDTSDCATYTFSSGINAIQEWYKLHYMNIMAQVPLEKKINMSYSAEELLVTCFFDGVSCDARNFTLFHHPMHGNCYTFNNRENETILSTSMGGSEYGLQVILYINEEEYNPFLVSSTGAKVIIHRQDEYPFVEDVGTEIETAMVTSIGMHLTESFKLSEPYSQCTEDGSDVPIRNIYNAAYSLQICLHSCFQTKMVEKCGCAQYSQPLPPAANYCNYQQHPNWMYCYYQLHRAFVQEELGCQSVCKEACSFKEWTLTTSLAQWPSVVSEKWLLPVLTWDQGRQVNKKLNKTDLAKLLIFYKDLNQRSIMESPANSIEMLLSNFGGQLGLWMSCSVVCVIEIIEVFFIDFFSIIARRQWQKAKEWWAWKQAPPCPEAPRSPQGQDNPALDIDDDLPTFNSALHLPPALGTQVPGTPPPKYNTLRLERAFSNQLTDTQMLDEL

| SMILES | IC50 [1] | residual activity [2] [%] | activity at 10 µM [3] | residual activity [4] [%] | residual activity [5] [%] | activity at 10 µM [6] | residual activity [7] [%] | residual activity [8] [%] | residual activity [9] [%] | residual activity [10] [%] | activity at 10 µM [11] | residual activity [12] [%] | residual activity [13] [%] | residual activity [14] [%] | residual activity [15] [%] | residual activity [16] [%] | residual activity [17] [%] | residual activity [18] [%] | residual activity [19] [%] | residual activity [20] [%] | also measured |
| --- | --- | --- | --- | --- | --- | --- | --- | --- | --- | --- | --- | --- | --- | --- | --- | --- | --- | --- | --- | --- | --- |
| CCn1c(CNC(=O)c2ncc(C)nc2N)[n+](CC)c2ccc(C(=O)N(C)CN(C)C)cc21 | > 10 µM (not active) | 76 | 87% (not active) | 90 | 82 | 87% (not active) | 61 | 104 | 60 | 105 | 103% (not active) | 87 | 104 | 87 | 79 | 103 | 102 | 91 | 100 | 99 | residual activity [21]: 107%; residual activity [22]: 105%; residual activity [23]: 97%; residual activity [24]: 97%; residual activity [25]: 120%; residual activity [26]: 96%; residual activity [27]: 96% |
| CCn1c(CNC(=O)c2nc(Cl)cnc2N)[n+](CC)c2ccc(C(=O)N(C)CCN(C)C)cc21 | 0.017 µM (active) | 50 | 66% (not active) | 83 | 84 | 89% (not active) | 92 | 94 | 95 | 97 | 99% (not active) | 99 | 100 | 100 | 101 | 101 | 103 | 105 | 105 | 106 | residual activity [21]: 109%; residual activity [22]: 110%; residual activity [23]: 112%; residual activity [24]: 115%; residual activity [25]: 117%; residual activity [26]: 119%; residual activity [27]: 130% |
